Measurements published in publication PMC9606955, “In Vitro Activity of Essential Oils Distilled from Colombian Plants against Candida auris and Other Candida Species with Different Antifungal Susceptibility Profiles” (Molecules, 2022).
≈ marks a conversion by molar mass, not a printed value.

Experiments:
[1] = tested on: C. krusei ATCC 6258; test: MIC, CLSI M27 broth microdilution; assay type: cell-based, Candida krusei; details: C. krusei ATCC 6258, antifungal drugs; for MIC: Pichia kudriavzevii, ATCC6258, geometric mean, read-out: MIC GM
In short: (§1)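 Endpoint: visible growth inhibition versus control, read by eye after 24 h incubation at 35 °C. Broth microdilution in RPMI 1640-MOPS, 2.5 × 10^3 CFU/mL inoculum, compounds tested from 0.5 up to 256 µg/mL final. Reported as geometric mean and range.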

[2] = tested on: C. tropicalis ATCC 750; test: MIC, CLSI M27 broth microdilution; assay type: cell-based, Candida tropicalis; details: antifungal drugs; for MIC: Candida tropicalis, ATCC750, geometric mean
In short: as §1

[3] = tested on: C. tropicalis ATCC 200956; test: MIC, CLSI M27 broth microdilution; assay type: cell-based, Candida tropicalis; details: C. tropicalis ATCC 200956; for MIC Range / MIC: antifungal drugs; for MIC: Candida tropicalis, ATCC200956, geometric mean, read-out: MIC GM
In short: as §1

[4] = tested on: C. albicans ATCC 10231, C. tropicalis ATCC 200956, and C. auris CDC B11903; test: Time–kill assay, control drugs; assay type: cell-based, Candida spp.; details: fungicidal and fungistatic control drugs
Description: Time–kill assays with the L. origanoides (thymol + p-cymene) chemotype (Code 0018) EO, thymol, FLC, and AMB against C. albicans ATCC 10231, C. tropicalis ATCC 200956, and C. auris CDC B11903 were performed according to the protocol published by Klebser et al. with some modifications. […] Absorbance at λ = 490 nm was measured every 2 h with a Multiskan SkyHigh Microplate Spectrophotometer. AMB and FLC were included as fungicidal and fungistatic control drugs, respectively.

[5] = tested on: C. metapsilosis MUM 15.12; test: MIC, CLSI M27 broth microdilution; assay type: cell-based, Candida metapsilosis; details: C. metapsilosis MUM 15.12, antifungal drugs; for MIC: Lodderomyces metapsilosis, MUM15.12, geometric mean, read-out: MIC GM
In short: as §1

[6] = tested on: C. orthopsilosis MUM 17.13; test: MIC, CLSI M27 broth microdilution; assay type: cell-based, Candida orthopsilosis; details: C. orthopsilosis MUM 17.13, antifungal drugs; for MIC: Lodderomyces orthopsilosis, MUM17.13, geometric mean, read-out: MIC GM
In short: as §1

[7] = tested on: C. albicans ATCC 64550; test: MIC, CLSI M27 broth microdilution; assay type: cell-based, Candida albicans; details: antifungal drugs; for MIC: Candida albicans, ATCC64550, geometric mean
Description: (§2) The fungal strains used in this study were C. albicans ATCC 10231, C. albicans ATCC 64550, C. parapsilosis ATCC 22019, C. tropicalis ATCC 750, C. tropicalis ATCC 200956 (resistant to azoles and AMB), C. glabrata LMDM 34 (resistant to echinocandins), C. metapsilosis MUM 15.12, C. orthopsilosis MUM 17.13, C. lusitaniae MUM 17.08, C. krusei ATCC 6258 (Issatchenkia orientalis ATCC 6258), and C. auris CDC B11903. Additionally, nine clinical isolates were included: C. parapsilosis Synlab 406 (FLC-resistant) and eight C. auris isolates identified by MALDI-TOF MS (Bruker Daltonics, Bremen, Germany) according to Zhao et al.. These yeasts were cultured on Sabouraud Dextrose Agar (SDA; Sigma-Aldrich, St. Louis, MO, USA) for 24 h at 35 °C.
(§3) Antifungal susceptibility testing was performed according to Clinical and Laboratory Standards Institute M27, 4th Edition (CLSI standard M27, 4th Edition). Some modifications were applied for evaluation of the antifungal activity of EOs and terpenes. Initially, a screening was carried out to determine the antifungal activity of the EOs and of commercial terpenes. Stock concentrations of EOs and terpenes were prepared at 512 µg/mL and an inoculum of 2.5 × 10^3 CFU/mL of each yeast was prepared in RPMI 1640-MOPS (Sigma- Aldrich St. Louis, MO, USA). Thereafter, 100 µL of each stock solution of EOs or terpenes was dispensed in 96-well microdilution plates (Corning®, Costar®, NY, USA) and 100 µL of each yeast inoculum was added. […] Microdilution plates were incubated at 35 °C and, after 24 h, the presence or absence of growth was visually checked using a manual mirror viewer and then compared with the amount of growth in the control (no EO or terpene). Compounds able to inhibit yeast growth were tested to determine the minimal inhibitory concentration (MIC) as follows: 100 µL of 10 two-fold dilutions of the EOs or commercial terpenes was dispensed in 96-well microplates and the yeast inoculum was added. Final concentrations of the EOs or terpenes ranged from 0.5 µg/mL to 256 µg/mL. Microdilution plates were incubated at 35 °C for 24 h. MICs were visually determined at the lowest concentration that produced visual inhibition compared to the growth control. The assays were performed at least three times in duplicate on different days. The results were expressed as geometric means (GM) and ranges. As an antifungal susceptibility testing control, the activity of ITC and AMB against the reference strains C. krusei ATCC 6258 and C. parapsilosis ATCC 22019 was evaluated in all experiments following the CLSI standard M27, 4th Edition. It was mandatory that the MIC values remained in the accepted range.

[8] = tested on: C. albicans ATCC 10231; test: MIC, CLSI M27 broth microdilution; assay type: cell-based, Candida albicans; details: antifungal drugs; for MIC: Candida albicans, ATCC10231, geometric mean
Description: as §2, §3

[9] = tested on: C. parapsilosis ATCC 22019; test: MIC, CLSI M27 broth microdilution; assay type: cell-based, Candida parapsilosis; details: antifungal drugs; for MIC: Lodderomyces parapsilosis, ATCC22019, geometric mean
In short: as §1

[10] = tested on: C. parapsilosis Synlab 406; test: MIC, CLSI M27 broth microdilution; assay type: cell-based, Candida parapsilosis; details: C. parapsilosis Synlab 406; for MIC Range / MIC: antifungal drugs; for MIC: Lodderomyces parapsilosis, SYNLAB406, geometric mean, read-out: MIC GM
In short: as §1

[11] = tested on: C. auris Ca 9; test: MIC, CLSI M27 broth microdilution; assay type: cell-based, Candida auris; details: C. auris Ca 9, antifungal drugs; for MIC: Candidozyma auris, CA9, geometric mean, read-out: MIC GM
In short: as §1

[12] = tested on: C. auris Ca 32; test: MIC, CLSI M27 broth microdilution; assay type: cell-based, Candida auris; details: C. auris Ca 32, antifungal drugs; for MIC: Candidozyma auris, CA32, geometric mean, read-out: MIC GM
In short: as §1

[13] = tested on: C. auris Ca 10; test: MIC, CLSI M27 broth microdilution; assay type: cell-based, Candida auris; details: antifungal drugs; for MIC: Candidozyma auris, CA10, geometric mean
In short: as §1

[14] = tested on: C. auris CDC B11903; test: MIC, CLSI M27 broth microdilution; assay type: cell-based, Candida auris; details: C. auris CDCB11903, antifungal drugs; for MIC: Candidozyma auris, geometric mean, read-out: MIC GM
In short: as §1

[15] = tested on: C. auris Ca 41; test: MIC, CLSI M27 broth microdilution; assay type: cell-based, Candida auris; details: C. auris Ca 41; for MIC Range / MIC: antifungal drugs; for MIC: Candidozyma auris, CA41, geometric mean, read-out: MIC GM
In short: as §1

[16] = tested on: C. lusitaniae MUM 17.08; test: MIC, CLSI M27 broth microdilution; assay type: cell-based, Candida lusitaniae; details: C. lusitaniae MUM 17.08, antifungal drugs; for MIC: Clavispora lusitaniae, MUM17.08, geometric mean, read-out: MIC GM
In short: as §1

[17] = tested on: C. glabrata LMDM 34; test: MIC, CLSI M27 broth microdilution; assay type: cell-based, Candida glabrata; details: antifungal drugs; for MIC: Nakaseomyces glabratus, LMDM34, geometric mean
Description: as §2, §3

SMILES	MIC Range [1] [µg/mL]	MIC [1] [µg/mL]	MIC [2] [µg/mL]	MIC Range [2] [µg/mL]	MIC Range [3] [µg/mL]	MIC [3] [µg/mL]	effect in time–kill assay (control drugs) [4]	MIC Range [5] [µg/mL]	MIC [5] [µg/mL]	MIC Range [6] [µg/mL]	MIC [6] [µg/mL]	MIC [7] [µg/mL]	MIC Range [7] [µg/mL]	MIC [8] [µg/mL]	MIC Range [8] [µg/mL]	MIC [9] [µg/mL]	MIC Range [9] [µg/mL]	MIC Range [10] [µg/mL]	MIC [10] [µg/mL]	MIC Range [11] [µg/mL]	other results
C[C@@H]1[C@H](O)[C@@H](C)/C=C/C=C/C=C/C=C/C=C/C=C/C=C/[C@H](O[C@@H]2O[C@H](C)[C@@H](O)[C@H](N)[C@@H]2O)C[C@@H]2O[C@](O)(C[C@@H](O)C[C@@H](O)[C@H](O)CC[C@@H](O)C[C@@H](O)CC(=O)O[C@H]1C)C[C@H](O)[C@H]2C(=O)O [AMB, amphotericin B]	0.12 to 0.25	0.15 (≈ 0.162 µM)	0.11 (≈ 0.119 µM)	0.06 to 0.12	1 to 2	1.41 (≈ 1.53 µM)	fungicidal	<0.03	< 0.03	<0.03	< 0.03	0.04 (≈ 0.0433 µM)	0.03 to 0.12	0.04 (≈ 0.0433 µM)	0.03 to 0.12	0.06 (≈ 0.0649 µM)	0.06 (≈ 0.0649 µM)	0.06 to 0.25	0.15 (≈ 0.162 µM)	0.12 to 0.5	susceptibility category ([3]; resistance confirmed): resistance; MIC [11]: 0.25 µg/mL (≈ 0.271 µM); MIC Range [12]: 0.12 to 0.5 µg/mL; MIC [12]: 0.19 µg/mL (≈ 0.206 µM); MIC [13]: 0.18 µg/mL (≈ 0.195 µM); MIC Range [13]: 0.12 to 0.25 µg/mL; MIC Range [14]: 0.06 to 0.12 µg/mL; MIC [14]: 0.07 µg/mL (≈ 0.0758 µM); susceptibility category ([15]; CDC breakpoints): AMB-resistant; MIC Range [15]: 1 µg/mL (≈ 1.08 µM); MIC [15]: 1 µg/mL (≈ 1.08 µM); MIC Range [16]: 0.03 µg/mL (≈ 0.0325 µM); MIC [16]: 0.03 µg/mL (≈ 0.0325 µM); MIC [17]: 0.06 µg/mL (≈ 0.0649 µM); MIC Range [17]: 0.06 to 0.12 µg/mL
OC(Cn1cncn1)(Cn1cncn1)c1ccc(F)cc1F [FLC, fluconazole]	8 (≈ 26.1 µM)	8 (≈ 26.1 µM)	1.4 (≈ 4.57 µM)	1 to 2	>64	> 64	fungistatic	1 to 2	1.4 (≈ 4.57 µM)	1 (≈ 3.27 µM)	1 (≈ 3.27 µM)	5.6 (≈ 18.3 µM)	4 to 8	4 (≈ 13.1 µM)	4 (≈ 13.1 µM)	0.7 (≈ 2.29 µM)	0.5 to 1	8 to 16	11.3 (≈ 36.9 µM)	4 (≈ 13.1 µM)	susceptibility category ([10]; resistance confirmed): resistance; MIC [11]: 4 µg/mL (≈ 13.1 µM); MIC Range [12]: 8 to 16 µg/mL; MIC [12]: 11.3 µg/mL (≈ 36.9 µM); MIC [13]: 4 µg/mL (≈ 13.1 µM); MIC Range [13]: 4 µg/mL (≈ 13.1 µM); MIC Range [14]: 1 to 2 µg/mL; MIC [14]: 1.4 µg/mL (≈ 4.57 µM); MIC Range [15]: 2 µg/mL (≈ 6.53 µM); MIC [15]: 2 µg/mL (≈ 6.53 µM); MIC Range [16]: 0.5 µg/mL (≈ 1.63 µM); MIC [16]: 0.5 µg/mL (≈ 1.63 µM); MIC [17]: 2.8 µg/mL (≈ 9.14 µM); MIC Range [17]: 2 to 4 µg/mL
